The values below come from patent publication US4708966A, “Novel anti-inflammatory agents, pharmaceutical compositions and methods for reducing inflammation” (The Procter & Gamble Company, priority 1986, dated 1987).

Structures are written as SMILES.

Experiment [1] has as its system oxazolone-induced inflamed mouse ear. Description: Oxazolone-Induced Inflamed Mouse Ear Test (Ox-IMET). Type of experiment: in vivo, Adult male Cox ICR mice. Conditions: topical, 25 ul of 10% in ethanol, 24 h after challenge, vs control group, read-out: Percent Inhibition. As for the experimental part: Oxazolone-Induced Inflamed Mouse Ear Test ("Ox-IMET")
Adult male Cox ICR mice, 25-35 g, are sensitized by applying 3% oxazolone in olive oil to the clipped abdomen of each animal using a cotton swab. One week later, the mice are challenged on the inner surface of the left ear with 3% oxazolone in aceotone. At the same time 25 ul of the test compound (10% in ethanol) is applied to the outer surface of the same ear. Twenty four hours after the challenge, the animals are sacrificed by cervical dislocation and both ears are removed. A 5 mm punch biopsy is removed from both ears and is weighed to the nearest 0.1 mg on a Cahn electrobalance. Ten animals are used per group. The study usually consists of 4 to 6 groups, of which one is a control group which is challenged on the left ear, but is not treated with a test compound. The results are expressed as percent inhibition of the swelling response compared to the control group. Statistical tests for significance between groups are made using a one way analysis of variance of the ear weight differences.

In experiment [2] the test system is arachidonic acid-induced inflamed mouse ear. Description: Arachidonic Acid-Induced Inflamed Mouse Ear Test. Type of experiment: in vivo, Adult male Cox ICR mice. As for the experimental part: Arachidonic Acid-Induced Inflamed Mouse Ear Test
All drugs are dissolved with arachidonic acid in the vehicle. At the end of 3 hours, animals are sacrificed by cervical dislocation and both ears are removed. A 5 mm punch biopsy is removed from both ears and is weighed to the nearest 0.1 mg on a Cahn electrobalance. Ten animals are used per group. The study usually consists of 4 to 6 groups, of which one is a control group which is treated on the left ear with only arachidonic acid in the vehicle. The results are expressed as percent inhibition of the swelling response compared to the control group. Statistical tests for significance between groups are made using a one way analysis of variance of the ear weight differences. ID50 values are determined by regression analysis.

In experiment [3] the test system is adjuvant arthritis (modified Freund's adjuvant). Kind of experiment: Adjuvant Arthritis - Therapeutic. It is filed as in vivo, Male Sprague-Dawley rats. Conditions: for Body Weights % Increase / Bone Resorption % Inhibition / Paw Volume % Decrease: 2 x/day, days 20 through 28. The method, then:
(§1) Adjuvant Arthritis Methodology
(§2) Male Sprague-Dawley rats weighing 167-170 gm are allowed to acclimate to the laboratory for at least 3 days. Ten rats are then assigned to the healthy control group and the remaining rats are assigned to the arthritic group. On day 0, the rats in the arthritic group are injected subcutaneously in the middle of their tail with a modified Freund's adjuvant (MFA) at a dosage of 0.05 ml/100 gm body weight. The MFA is made by grinding Mycobacterium butyricum (Mb) and then mixing with mineral oil at a concentration of 10 mg Mb/ml of mineral oil. This is mixed in an Omni mixer for 45 minutes.
Paw volumes and body weights are determined on days -1, 6, 13, 19, 26, and 29. On day 19, paw volume changes from day -1 are determined for the arthritic group. The rats with paw volume changes≥0.50 ml but ≤2.50 ml are randomized by paw volume changes into the treatment groups on day 20. […] On day 29, two representative rats from each treatment group are photographed, paw volumes and body weights are determined, and then the rats are sacrificed with CO2 and x-rays are taken.
(§3) The radiographs are used to grade bone resorption. Bone resorption is graded in 20 areas of the fore and hind paws. The areas for grading on the hind paw are: distal femur end, proximal tibia and tibula, distal end of the tibia and the small bone under the tibia, calcaneous, tarsus, and metatarsus. The areas on the fore paws are: radius, ulna, carpus, and metacarpus. Each area is given a grade of 0 (no resorption) or 1 (resorption) for possible grade of 20 of each animal.

The test system is the same in experiment [4]. Kind of experiment: Adjuvant Arthritis - Immunomodulatory. It is filed as in vivo, Male Sprague-Dawley rats. Conditions: 15 mg/kg, 2 x/day, day -1 through day 7. As for the experimental part:
as §1, §2
Paw volumes and body weights are determined on days -1, 6, 13, 19, 26, and 29. On day 19, paw volume changes from day -1 are determined for the arthritic group. The rats with paw volume changes≥0.50 ml but ≤2.50 ml are randomized by paw volume changes into the treatment groups on day 20. On days 20 through 28, the rats are orally dosed twice a day (once a day on weekends). On day 29, two representative rats from each treatment group are photographed, paw volumes and body weights are determined, and then the rats are sacrificed with CO2 and x-rays are taken.
as §3
The same procedures as for the therapeutic, except the rats are randomly assigned to the treatment groups including the healthy control group by body weights on day -2. Paw volumes and body weights are determined on days -1, 6, 13, 20, and 27. The rats are treated from day -1 through day 7. The rats are sacrificed on day 28 and x-rayed. The radiographs are graded as above using a severity scale from 0 (no resorption) to 3 (severe resorption).

Experiment [5] can be described thus: oral anti-pyretic activity. It is filed as in vivo. The method, then:
In order to determine and assess pharmacological activity, testing of these compounds in animals is carried out using various assays known to those skilled in the art. […] Examples of such known tests include the carrageenan rat edema test, the oxazolone-induced inflamed mouse ear test, and the arachidonic acid-induced inflamed mouse ear test. Anti-pyretic acitivity may be tested using art-known rat models, and analgesic acitivty may be tested in art-known models such as the acetylcholine model in mice, the Randall-Selitto model in rats, and the hot-plate test in mice. Another useful art-known test is the adjuvant arthritis test which is a useful model for assessing anti-inflammatory activity and anti-resorptive activity in a chronic, rather than acute, model.

Take `C#CCCCC(=O)c1cc(C(C)(C)C)c(O)c(C(C)(C)C)c1` [Compound 11, 4-(5'-hexynoyl)-2,6-di-t-butylphenol]: the inhibition in vivo at 10 % in experiment [1] came to 34.1%. Further, the inhibition in vivo at 50 µg/ear in experiment [2] (Mus musculus, 50 ug/ear topical, 3 hours, read-out: Percent Inhibition at 50 ug/ear topical dose) is 43.9%. The same compound displayed an ID50 in experiment [2] (topical, by regression analysis) of 20.7 ug/ear. Also, the “Body Weights % Increase” value in experiment [3] (5 mg/kg, oral) is 36%; in experiment [3] (15 mg/kg, oral), 34%; in experiment [4], 30%. The “Bone Resorption % Inhibition” value is on record as 37% in experiment [3] (5 mg/kg, oral); 50% in experiment [3] (15 mg/kg, oral); 57% in experiment [4] (severity scale 0-3). Besides, the “Paw Volume % Decrease” value is listed as 75% in experiment [3] (5 mg/kg, oral); 83% in experiment [3] (15 mg/kg, oral); 48% in experiment [4]. Moreover, the “decrease of bone resorption in arthritic animal models” value in experiment [3] (arthritic animal models) is reported as “ability to decrease bone resorption”. Moreover, in experiment [3] (oral, dosed therapeutically), the “oral anti-arthritic activity in a rat adjuvant arthritis model” value is “anti-arthritic activity”. In experiment [5], the oral anti-pyretic activity result is “oral anti-pyretic activity”.
